# According to patent publication US20250302815A1, “PROTEIN TYROSINE PHOSPHATASE TARGETING LIGANDS” (CALICO LIFE SCIENCES LLC, priority 2021, published 2025):
# Legend:
# [1] = molecular target: T1, PTPN2 (HiBIT-PTPN2 in 293T.109 cells) (Homo sapiens, UniProt P17706); assay: HiBiT Degradation 293T.109 PTPN2 (Nano-Glo HiBiT Lytic Assay); format: cell-based; details: 24.0 hours
# T1 construct: expressed in transfected cells; host or cells: 293T.109 (293T WT from ATCC)
# T1 sequence (P17706 1-415): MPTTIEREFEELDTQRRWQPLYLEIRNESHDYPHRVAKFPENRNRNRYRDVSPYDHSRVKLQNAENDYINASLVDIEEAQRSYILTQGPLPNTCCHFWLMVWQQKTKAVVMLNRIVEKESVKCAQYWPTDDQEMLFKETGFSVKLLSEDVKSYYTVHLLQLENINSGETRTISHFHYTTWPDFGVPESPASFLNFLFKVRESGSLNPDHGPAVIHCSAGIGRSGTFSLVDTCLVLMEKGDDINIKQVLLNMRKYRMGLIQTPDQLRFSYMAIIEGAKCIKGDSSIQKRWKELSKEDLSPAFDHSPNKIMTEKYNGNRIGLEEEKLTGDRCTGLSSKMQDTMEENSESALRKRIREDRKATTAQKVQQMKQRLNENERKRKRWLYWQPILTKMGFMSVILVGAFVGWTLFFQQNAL
# How it was run: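 Degradation read-out: lytic HiBiT luminescence after 24 h treatment (37 °C, 5% CO2) of 5000 293T cells per well expressing HiBiT-fused PTPN2 from an N-terminal tag. Dosing was 11 points, half-log steps down from 10 μM, in duplicate; vehicle-treated and no-reagent wells served as controls.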
# PTPN2 (B16F10.4 cells) = molecular target: T2, PTPN2 (B16F10.4 cells) (Mus musculus, UniProt Q06180); assay: HiBiT Degradation B16F10.4 PTPN2; format: cell-based; details: 24.0 hours
# T2 construct: HiBiT; host or cells: B16F10.4
# T2 sequence (Q06180 1-406): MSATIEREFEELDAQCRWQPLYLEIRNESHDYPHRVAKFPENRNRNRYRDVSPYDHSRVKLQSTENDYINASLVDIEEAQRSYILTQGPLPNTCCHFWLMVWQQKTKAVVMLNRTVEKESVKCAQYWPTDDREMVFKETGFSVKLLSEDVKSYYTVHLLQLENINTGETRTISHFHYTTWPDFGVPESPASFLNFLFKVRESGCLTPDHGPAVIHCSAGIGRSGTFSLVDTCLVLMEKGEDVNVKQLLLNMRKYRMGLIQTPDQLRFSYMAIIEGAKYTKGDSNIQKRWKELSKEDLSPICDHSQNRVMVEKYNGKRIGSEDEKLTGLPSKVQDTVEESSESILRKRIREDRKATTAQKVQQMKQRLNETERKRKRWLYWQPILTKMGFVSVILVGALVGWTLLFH
DC50 [1] [nM],DC50 (PTPN2 (B16F10.4 cells)) [nM],Compound
200 to 1000,≥ 1000,"O=C(O)COc1c(C(=O)O)sc(-c2cccc(NC3CCN(S(=O)(=O)Cc4cccc(NC(=O)CCCCCN5CCC(Nc6cccc7c6CN(C6CCC(=O)NC6=O)C7=O)CC5)c4)CC3)c2)c1Cl (stereo not shown) [Example 33, 3-(carboxymethoxy)-4-chloro-5-[3-[[1-[[3-[6-[4-[[2-(2,6-dioxo-3-piperidyl)-1-oxo-isoindolin-4-yl]amino]-1-piperidyl]hexanoylamino]phenyl]methylsulfonyl]-4-piperidyl]amino]phenyl]thiophene-2-carboxylic acid]"
200 to 1000,< 50,CC1(C)C[C@H](Nc2cccc(-c3sc(C(=O)O)c(OCC(=O)O)c3Cl)c2)CCN1S(=O)(=O)Cc1ccc(F)c(NC(=O)N2CCC(c3ccc4c5c(cccc35)C(=O)N4C3CCC(=O)NC3=O)CC2)c1 (stereo partly shown) [Example 127]
200 to 1000,≥ 1000,"CC(Nc1cccc2c1CN(C1CCC(=O)NC1=O)C2=O)C(=O)NCCCCCCC(=O)Nc1cccc(CS(=O)(=O)N2CCC(Nc3cccc(-c4sc(C(=O)O)c(OCC(=O)O)c4Cl)c3)CC2)c1 (stereo not shown) [Example 26, 3-(carboxymethoxy)-4-chloro-5-[3-[[1-[[3-[7-[2-[[2-(2,6-dioxo-3-piperidyl)-1-oxo-isoindolin-4-yl]amino]propanoylamino]heptanoylamino]phenyl]methylsulfonyl]-4-piperidyl]amino]phenyl]thiophene-2-carboxylic acid]"
50 to 200,< 50,"Cn1c(=O)n(C2CCC(=O)NC2=O)c2ccc(C3CCN(C(=O)Nc4cccc(CS(=O)(=O)N5CC[C@@H](Nc6cccc(-c7sc(C(=O)O)c(OCC(=O)O)c7Cl)c6F)CC5(C)C)c4)CC3)cc21 (stereo partly drawn) [Example 135, 3-(carboxymethoxy)-4-chloro-5-[3-[[(4R)-1-[[3-[[4-[1-(2,6-dioxo-3-piperidyl)-3-methyl-2-oxo-benzimidazol-5-yl]piperidine-1-carbonyl]amino]phenyl]methylsulfonyl]-2,2-dimethyl-4-piperidyl]amino]-2-fluoro-phenyl]thiophene-2-carboxylic acid]"
< 50,≥ 1000,CC1(C)C[C@@H](Nc2cccc(-c3sc(C(=O)O)c(OCC(=O)O)c3Cl)c2)CCN1S(=O)(=O)Cc1cccc(NC(=O)C2CN(C(=O)COc3cccc4c3CN(C3CCC(=O)NC3=O)C4=O)C2)c1 (stereo partly shown) [Example 74]
< 50,< 50,"Cn1c(=O)n([C@H]2CCC(=O)NC2=O)c2ccc(C3CCN(C(=O)Nc4cccc(CS(=O)(=O)N5CC[C@H](Nc6cccc(-c7sc(C(=O)O)c(OCC(=O)O)c7Cl)c6)CC5(C)C)c4)CC3)cc21 (single isomer, unassigned) [Example 234]"
200 to 1000,50 to 200,"CC1(C)C[C@H](Nc2cccc(-c3sc(C(=O)O)c(OCC(=O)O)c3Cl)c2)CCN1S(=O)(=O)Cc1cccc(NC(=O)N2CCC(c3ccc4c(c3)n(C3COC3)c(=O)n4C3CCC(=O)NC3=O)CC2)c1 (stereo partly drawn) [Example 206, 3-(carboxymethoxy)-4-chloro-5-(3-(((4R)-1-((3-(4-(1-(2,6-dioxopiperidin-3-yl)-3-(oxetan-3-yl)-2-oxo-2,3-dihydro-1H-benzo[d]imidazol-5-yl)piperidine-1-carboxamido)benzyl)sulfonyl)-2,2-dimethylpiperidin-4-yl)amino)phenyl)thiophene-2-carboxylic acid]"
200 to 1000,200 to 1000,"CC1(C)C[C@@H](Nc2cccc(-c3sc(C(=O)O)c(OCC(=O)O)c3Cl)c2)CCN1S(=O)(=O)Cc1cccc(NC(=O)CCCCCCNC(=O)CNc2cccc3c2CN(C2CCC(=O)NC2=O)C3=O)c1 (stereo partly drawn) [Example 18, 3-(carboxymethoxy)-4-chloro-5-(3-(((4S)-1-((3-(7-(2-((2-(2,6-dioxopiperidin-3-yl)-1-oxoisoindolin-4-yl)amino)acetamido)heptanamido)benzyl)sulfonyl)-2,2-dimethylpiperidin-4-yl)amino)phenyl)thiophene-2-carboxylic acid]"
200 to 1000,200 to 1000,"CC1(C)C[C@H](Nc2cccc(-c3sc(C(=O)O)c(OCC(=O)O)c3Cl)c2)CCN1S(=O)(=O)Cc1cccc(NC(=O)N2CCC(c3ccc4c(C5CCC(=O)NC5=O)cnn4c3)CC2)c1 (stereo partly drawn) [Example 193, 3-(carboxymethoxy)-4-chloro-5-(3-(((4R)-1-((3-(4-(3-(2,6-dioxopiperidin-3-yl)pyrazolo[1,5-a]pyridin-6-yl)piperidine-1-carboxamido)benzyl)sulfonyl)-2,2-dimethylpiperidin-4-yl)amino)phenyl)thiophene-2-carboxylic acid]"
< 50,< 50,Cn1c(=O)n(C2CCC(=O)NC2=O)c2ccc([C@H]3CCN(C(=O)Nc4cccc(CS(=O)(=O)N5CC[C@H](Nc6cccc(-c7sc(C(=O)O)c(OCC(=O)O)c7Cl)c6)CC5(C)C)c4)C[C@@H]3F)cc21 (stereo partly shown) [Example 171]
200 to 1000,50 to 200,Cn1c(=O)n(C2CCC(=O)NC2=O)c2ccc(OC3CCN(C(=O)Nc4cccc(CS(=O)(=O)N5CC[C@H](Nc6cccc(-c7sc(C(=O)O)c(OCC(=O)O)c7Cl)c6)CC5(C)C)c4)CC3)cc21 (stereo partly shown) [Example 118]
< 50,200 to 1000,"CC1(C)CC(Nc2cccc(-c3sc(C(=O)O)c(OCC(=O)O)c3Cl)c2F)CCN1S(=O)(=O)Cc1ccc(F)c(NC(=O)C2CN(C(=O)CNc3cccc4c3CN(C3CCC(=O)NC3=O)C4=O)C2)c1 (stereo not shown) [Example 146, 3-(carboxymethoxy)-4-chloro-5-[3-[[1-[[3-[[1-[2-[[2-(2,6-dioxo-3-piperidyl)-1-oxo-isoindolin-4-yl]amino]acetyl]azetidine-3-carbonyl]amino]-4-fluoro-phenyl]methylsulfonyl]-2,2-dimethyl-4-piperidyl]amino]-2-fluoro-phenyl]thiophene-2-carboxylic acid]"
50 to 200,200 to 1000,"CC1(C)C[C@@H](Nc2cccc(-c3sc(C(=O)O)c(OCC(=O)O)c3Cl)c2)CCN1S(=O)(=O)Cc1cccc(NC(=O)NCCCc2cc3c4c(cccc4c2)N(C2CCC(=O)NC2=O)C3=O)c1 (stereo partly drawn) [Example 215, 3-(carboxymethoxy)-4-chloro-5-[3-[[(4S)-1-[[3-[3-[1-(2,6-dioxo-3-piperidyl)-2-oxo-benzo[cd]indol-4-yl]propylcarbamoylamino]phenyl]methylsulfonyl]-2,2-dimethyl-4-piperidyl]amino]phenyl]thiophene-2-carboxylic acid]"
200 to 1000,200 to 1000,"O=C(O)COc1c(C(=O)O)sc(-c2cccc(NC3CCN(S(=O)(=O)Cc4cccc(NC(=O)CNc5ccc6c(c5)CN(C5CCC(=O)NC5=O)C6=O)c4)CC3)c2)c1Cl (stereo not shown) [Example 36, 3-(carboxymethoxy)-4-chloro-5-[3-[[1-[[3-[[2-[[2-(2,6-dioxo-3-piperidyl)-1-oxo-isoindolin-5-yl]amino]acetyl]amino]phenyl]methylsulfonyl]-4-piperidyl]amino]phenyl]thiophene-2-carboxylic acid]"
200 to 1000,200 to 1000,"Cn1c(=O)n(C2CCC(=O)NC2=O)c2ccc(CCC(=O)Nc3cccc(CS(=O)(=O)N4CCC(Nc5cccc(-c6sc(C(=O)O)c(OCC(=O)O)c6Cl)c5)CC4)c3)cc21 (stereo not shown) [Example 49, 3-(carboxymethoxy)-4-chloro-5-(3-((1-((3-(3-(1-(2,6-dioxopiperidin-3-yl)-3-methyl-2-oxo-2,3-dihydro-1H-benzo[d]imidazol-5-yl)propanamido)benzyl)sulfonyl)piperidin-4-yl)amino)phenyl)thiophene-2-carboxylic acid]"
200 to 1000,≥ 1000,"CN(C(=O)C1CCN(C(=O)CNc2cccc3c2CN(C2CCC(=O)NC2=O)C3=O)CC1)c1cccc(CS(=O)(=O)N2CC[C@@H](Nc3cccc(-c4sc(C(=O)O)c(OCC(=O)O)c4Cl)c3)CC2(C)C)c1 (stereo partly drawn) [Example 66, 3-(carboxymethoxy)-4-chloro-5-(3-(((4R)-1-((3-(1-((2-(2,6-dioxopiperidin-3-yl)-1-oxoisoindolin-4-yl)glycyl)-N-methylpiperidine-4-carboxamido)benzyl)sulfonyl)-2,2-dimethylpiperidin-4-yl)amino)phenyl)thiophene-2-carboxylic acid]"
50 to 200,50 to 200,"Cn1c(=O)n(C2CCC(=O)NC2=O)c2ccc(C#CCNC(=O)Nc3cccc(CS(=O)(=O)N4CC[C@H](Nc5cccc(-c6sc(C(=O)O)c(OCC(=O)O)c6Cl)c5)CC4(C)C)c3)cc21 (stereo partly drawn) [Example 91, 3-(carboxymethoxy)-4-chloro-5-(3-(((4S)-1-((3-(3-(3-(1-(2,6-dioxopiperidin-3-yl)-3-methyl-2-oxo-2,3-dihydro-1H-benzo[d]imidazol-5-yl)prop-2-yn-1-yl)ureido)benzyl)sulfonyl)-2,2-dimethylpiperidin-4-yl)amino)phenyl)thiophene-2-carboxylic acid]"
